In US20250230193A1, “CYCLIC COMPOUND HAVING SELECTIVE KRAS INHIBITORY EFFECT ON HRAS AND NRAS” (CHUGAI SEIYAKU KABUSHIKI KAISHA, priority 2022, published 2025):

Experiments:
[1] = molecular target: GDP-bound NRAS wild-type protein (Homo sapiens, UniProt P01111); assay: Binding to NRAS by surface plasmon resonance (SPR), Single Cycle Kinetics; details: KD ratio, GDP-bound NRAS wild-type vs GDP-bound KRAS wild-type, SPR
[2] = molecular target: GDP-bound HRAS wild-type protein (Homo sapiens, UniProt P01112); assay: Binding to HRAS by surface plasmon resonance (SPR), Single Cycle Kinetics; details: KD ratio, GDP-bound HRAS wild-type vs GDP-bound KRAS wild-type, SPR
Sequence of GDP-bound HRAS wild-type protein (P01112 whole entry): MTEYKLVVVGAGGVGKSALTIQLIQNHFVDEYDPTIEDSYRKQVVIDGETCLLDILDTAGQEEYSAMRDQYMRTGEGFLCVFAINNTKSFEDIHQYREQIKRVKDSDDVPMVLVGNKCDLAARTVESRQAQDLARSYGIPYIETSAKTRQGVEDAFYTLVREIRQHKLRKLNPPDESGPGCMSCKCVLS

Sequence of GDP-bound NRAS wild-type protein (P01111 whole entry): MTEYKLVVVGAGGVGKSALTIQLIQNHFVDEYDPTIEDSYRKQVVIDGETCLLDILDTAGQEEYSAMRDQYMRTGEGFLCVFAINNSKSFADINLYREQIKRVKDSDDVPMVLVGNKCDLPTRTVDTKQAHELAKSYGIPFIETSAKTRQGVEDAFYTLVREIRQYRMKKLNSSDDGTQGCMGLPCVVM

For `CC[C@H](C)[C@@H]1NC(=O)[C@H](COC)N(C)C(=O)C[C@@H](C(=O)N2CCOCC2)N(C)C(=O)[C@H](C2CCCC2)N(C)C(=O)C2(CCC2)NC(=O)[C@@H]2C[C@@H](OCC(C)C)CN2C(=O)[C@H](CCc2cc(F)c(C(F)(F)F)c(F)c2)NC(=O)CN(C)C(=O)[C@H](Cc2ccc(C(F)(F)F)cc2)N2CCCCC[C@@H](C2=O)N(C)C(=O)CN(C)C1=O` [PP0839], the “NRAS/KRAS (ratio of KD value with respect to NRAS to KD value with respect to KRAS)” value [1] was “B (a compound having 3 or more and less than 10 is denoted as B)” and the “HRAS/KRAS (ratio of KD value with respect to HRAS to KD value with respect to KRAS)” value [2] was “B (a compound having 3 or more and less than 10 is denoted as B)”.
For `CC[C@H](C)[C@@H]1NC(=O)[C@H](COC)N(C)C(=O)C[C@@H](C(=O)N2CCOCC2)N(C)C(=O)[C@H](C2CCCC2)N(C)C(=O)C2(CCC2)NC(=O)[C@@H]2CCN2C(=O)[C@H](CCc2cc(F)c(C(F)(F)F)c(F)c2)NC(=O)CN(C)C(=O)[C@H](Cc2ccc(C(F)(F)F)cc2)N2CCCCC[C@@H](C2=O)N(C)C(=O)CN(C)C1=O` [PP0840], the “NRAS/KRAS (ratio of KD value with respect to NRAS to KD value with respect to KRAS)” value [1] was “B (a compound having 3 or more and less than 10 is denoted as B)” and the “HRAS/KRAS (ratio of KD value with respect to HRAS to KD value with respect to KRAS)” value [2] was “B (a compound having 3 or more and less than 10 is denoted as B)”.
With `CCO[C@@H]1C[C@H]2C(=O)NC3(CCCC3)C(=O)N(C)[C@@H](C3CCCC3)C(=O)N(C)[C@H](C(=O)N3CCOCC3)CC(=O)N(C)[C@@H](COC)C(=O)N[C@@H]([C@@H](C)CC)C(=O)N(C)CC(=O)N(C)[C@H]3CCCCCN(C3=O)[C@@H](Cc3ccc(C(F)(F)F)cc3)C(=O)N(C)CC(=O)N[C@@H](CCc3cc(F)c(C(F)(F)F)c(F)c3)C(=O)N2C1` [PP0841] the “NRAS/KRAS (ratio of KD value with respect to NRAS to KD value with respect to KRAS)” value [1] was “B (a compound having 3 or more and less than 10 is denoted as B)” and the “HRAS/KRAS (ratio of KD value with respect to HRAS to KD value with respect to KRAS)” value [2] was “B (a compound having 3 or more and less than 10 is denoted as B)”.
In the case of `CCO[C@@H]1C[C@H]2C(=O)NC3(CC=CC3)C(=O)N(C)[C@@H](C3CCCC3)C(=O)N(C)[C@H](C(=O)N3CCOCC3)CC(=O)N(C)[C@@H](COC)C(=O)N[C@@H]([C@@H](C)CC)C(=O)N(C)CC(=O)N(C)[C@H]3CCCCCN(C3=O)[C@@H](Cc3ccc(C(F)(F)F)cc3)C(=O)N(C)CC(=O)N[C@@H](CCc3cc(F)c(C(F)(F)F)c(F)c3)C(=O)N2C1` [PP0842], the “NRAS/KRAS (ratio of KD value with respect to NRAS to KD value with respect to KRAS)” value [1] is reported as “B (a compound having 3 or more and less than 10 is denoted as B)” and the “HRAS/KRAS (ratio of KD value with respect to HRAS to KD value with respect to KRAS)” value [2] is reported as “B (a compound having 3 or more and less than 10 is denoted as B)”.
In the case of `CCO[C@@H]1C[C@H]2C(=O)NC3(CC(F)(F)C3)C(=O)N(C)[C@@H](C3CCCC3)C(=O)N(C)[C@H](C(=O)N3CCOCC3)CC(=O)N(C)[C@@H](COC)C(=O)N[C@@H]([C@@H](C)CC)C(=O)N(C)CC(=O)N(C)[C@H]3CCCCCN(C3=O)[C@@H](Cc3ccc(C(F)(F)F)cc3)C(=O)N(C)CC(=O)N[C@@H](CCc3cc(F)c(C(F)(F)F)c(F)c3)C(=O)N2C1` [PP0843], the “NRAS/KRAS (ratio of KD value with respect to NRAS to KD value with respect to KRAS)” value [1] is reported as “B (a compound having 3 or more and less than 10 is denoted as B)” and the “HRAS/KRAS (ratio of KD value with respect to HRAS to KD value with respect to KRAS)” value [2] is reported as “B (a compound having 3 or more and less than 10 is denoted as B)”.
For `CCO[C@@H]1C[C@H]2C(=O)NC3(CC(C)(C)C3)C(=O)N(C)[C@@H](C3CCCC3)C(=O)N(C)[C@H](C(=O)N3CCOCC3)CC(=O)N(C)[C@@H](COC)C(=O)N[C@@H]([C@@H](C)CC)C(=O)N(C)CC(=O)N(C)[C@H]3CCCCCN(C3=O)[C@@H](Cc3ccc(C(F)(F)F)cc3)C(=O)N(C)CC(=O)N[C@@H](CCc3cc(F)c(C(F)(F)F)c(F)c3)C(=O)N2C1` [PP0844], the “NRAS/KRAS (ratio of KD value with respect to NRAS to KD value with respect to KRAS)” value [1] was “B (a compound having 3 or more and less than 10 is denoted as B)” and the “HRAS/KRAS (ratio of KD value with respect to HRAS to KD value with respect to KRAS)” value [2] was “B (a compound having 3 or more and less than 10 is denoted as B)”.
With `CC[C@H](C)[C@@H]1NC(=O)[C@H](COC)N(C)C(=O)C[C@@H](C(=O)N2CCOCC2)N(C)C(=O)[C@H](C2CCCC2)N(C)C(=O)C2(CCCC2)NC(=O)[C@@H]2CCCN2C(=O)[C@H](CCc2cc(F)c(C(F)(F)F)c(F)c2)NC(=O)CN(C)C(=O)[C@H](Cc2ccc(C(F)(F)F)cc2)N2CCCCC[C@@H](C2=O)N(C)C(=O)CN(C)C1=O` [PP0845] the “NRAS/KRAS (ratio of KD value with respect to NRAS to KD value with respect to KRAS)” value [1] was “B (a compound having 3 or more and less than 10 is denoted as B)” and the “HRAS/KRAS (ratio of KD value with respect to HRAS to KD value with respect to KRAS)” value [2] was “B (a compound having 3 or more and less than 10 is denoted as B)”.
In the case of `CC[C@H](C)[C@@H]1NC(=O)[C@H](COC)N(C)C(=O)C[C@@H](C(=O)N2CCOCC2)N(C)C(=O)[C@H](C2CCCC2)N(C)C(=O)C2(CCCC2)NC(=O)[C@@H]2CC(F)(F)CN2C(=O)[C@H](CCc2cc(F)c(C(F)(F)F)c(F)c2)NC(=O)CN(C)C(=O)[C@H](Cc2ccc(C(F)(F)F)cc2)N2CCCCC[C@@H](C2=O)N(C)C(=O)CN(C)C1=O` [PP0846], the “NRAS/KRAS (ratio of KD value with respect to NRAS to KD value with respect to KRAS)” value [1] is reported as “B (a compound having 3 or more and less than 10 is denoted as B)” and the “HRAS/KRAS (ratio of KD value with respect to HRAS to KD value with respect to KRAS)” value [2] is reported as “B (a compound having 3 or more and less than 10 is denoted as B)”.
`CC[C@H](C)[C@@H]1NC(=O)[C@H](COC)N(C)C(=O)C[C@@H](C(=O)N2CCOCC2)N(C)C(=O)[C@H](C2CCCC2)N(C)C(=O)C2(CCCC2)NC(=O)[C@@H]2C[C@H](O)CN2C(=O)[C@H](CCc2cc(F)c(C(F)(F)F)c(F)c2)NC(=O)CN(C)C(=O)[C@H](Cc2ccc(C(F)(F)F)cc2)N2CCCCC[C@@H](C2=O)N(C)C(=O)CN(C)C1=O` [PP0847] was tested, and the “NRAS/KRAS (ratio of KD value with respect to NRAS to KD value with respect to KRAS)” value [1] was “B (a compound having 3 or more and less than 10 is denoted as B)” and the “HRAS/KRAS (ratio of KD value with respect to HRAS to KD value with respect to KRAS)” value [2] was “B (a compound having 3 or more and less than 10 is denoted as B)”.
For `CCO[C@@H]1C[C@H]2C(=O)NC3(CCC3)C(=O)N(C)[C@@H](C3CCCC3)C(=O)N(C)[C@H](C(=O)N3CCOCC3)CC(=O)N(C)[C@@H](COC)C(=O)N[C@@H]([C@@H](C)CC)C(=O)N(C)CC(=O)N(C)[C@H]3CCCCCN(C3=O)[C@@H](Cc3ccc(C(F)(F)F)cc3)C(=O)N(C)CC(=O)N[C@@H](CCc3ccc(C(F)(F)F)c(F)c3)C(=O)N2C1` [PP0848], the “NRAS/KRAS (ratio of KD value with respect to NRAS to KD value with respect to KRAS)” value [1] was “B (a compound having 3 or more and less than 10 is denoted as B)” and the “HRAS/KRAS (ratio of KD value with respect to HRAS to KD value with respect to KRAS)” value [2] was “B (a compound having 3 or more and less than 10 is denoted as B)”.
In the case of `CCO[C@@H]1C[C@H]2C(=O)NC3(CCC3)C(=O)N(C)[C@@H](C3CCCC3)C(=O)N(C)[C@H](C(=O)N3CCOCC3)CC(=O)N(C)[C@@H](COC)C(=O)N[C@@H]([C@@H](C)CC)C(=O)N(C)CC(=O)N(C)[C@H]3CCCCCN(C3=O)[C@@H](Cc3ccc(C(F)(F)F)cc3)C(=O)N(C)CC(=O)N[C@@H](CCc3ccc(C(F)(F)F)c(Cl)c3)C(=O)N2C1` [PP0849], the “NRAS/KRAS (ratio of KD value with respect to NRAS to KD value with respect to KRAS)” value [1] is reported as “B (a compound having 3 or more and less than 10 is denoted as B)” and the “HRAS/KRAS (ratio of KD value with respect to HRAS to KD value with respect to KRAS)” value [2] is reported as “B (a compound having 3 or more and less than 10 is denoted as B)”.
For `CCO[C@@H]1C[C@H]2C(=O)NC3(CCC3)C(=O)N(C)[C@@H](C3CCCC3)C(=O)N(C)[C@H](C(=O)N3CCOCC3)CC(=O)N(C)[C@@H](COC)C(=O)N[C@@H]([C@@H](C)CC)C(=O)N(C)CC(=O)N(C)[C@H]3CCCCCN(C3=O)[C@@H](Cc3ccc(C(F)(F)F)cc3)C(=O)N(C)CC(=O)N[C@@H](CCc3ccc(C)cc3)C(=O)N2C1` [PP0850], the “NRAS/KRAS (ratio of KD value with respect to NRAS to KD value with respect to KRAS)” value [1] was “B (a compound having 3 or more and less than 10 is denoted as B)” and the “HRAS/KRAS (ratio of KD value with respect to HRAS to KD value with respect to KRAS)” value [2] was “B (a compound having 3 or more and less than 10 is denoted as B)”.
`CCOC[C@H]1C(=O)N[C@@H]([C@@H](C)CC)C(=O)N(C)CC(=O)N(C)[C@H]2CCCCCN(C2=O)[C@@H](Cc2ccc(C(F)(F)F)cc2)C(=O)N(C)CC(=O)N[C@@H](CCc2cc(F)c(C(F)(F)F)c(F)c2)C(=O)N2C[C@H](OCC)C[C@H]2C(=O)NC2(CCC2)C(=O)N(C)[C@@H](C2CCCC2)C(=O)N(C)[C@H](C(=O)N2CCOCC2)CC(=O)N1C` [PP0851] was tested, and the “NRAS/KRAS (ratio of KD value with respect to NRAS to KD value with respect to KRAS)” value [1] was “B (a compound having 3 or more and less than 10 is denoted as B)” and the “HRAS/KRAS (ratio of KD value with respect to HRAS to KD value with respect to KRAS)” value [2] was “B (a compound having 3 or more and less than 10 is denoted as B)”.
In the case of `CCO[C@@H]1C[C@H]2C(=O)NC3(CCC3)C(=O)N(C)[C@@H](C3CCCC3)C(=O)N(C)[C@H](C(=O)N3CCOCC3)CC(=O)N(C)[C@@H](COC3CC3)C(=O)N[C@@H]([C@@H](C)CC)C(=O)N(C)CC(=O)N(C)[C@H]3CCCCCN(C3=O)[C@@H](Cc3ccc(C(F)(F)F)cc3)C(=O)N(C)CC(=O)N[C@@H](CCc3cc(F)c(C(F)(F)F)c(F)c3)C(=O)N2C1` [PP0852], the “NRAS/KRAS (ratio of KD value with respect to NRAS to KD value with respect to KRAS)” value [1] is reported as “B (a compound having 3 or more and less than 10 is denoted as B)” and the “HRAS/KRAS (ratio of KD value with respect to HRAS to KD value with respect to KRAS)” value [2] is reported as “B (a compound having 3 or more and less than 10 is denoted as B)”.
With `CCO[C@@H]1C[C@H]2C(=O)NC3(CCC3)C(=O)N(C)[C@@H](C3CCCC3)C(=O)N(C)[C@H](C(=O)N3CCOCC3)CC(=O)N(C)[C@@H](COCC(F)(F)F)C(=O)N[C@@H]([C@@H](C)CC)C(=O)N(C)CC(=O)N(C)[C@H]3CCCCCN(C3=O)[C@@H](Cc3ccc(C(F)(F)F)cc3)C(=O)N(C)CC(=O)N[C@@H](CCc3cc(F)c(C(F)(F)F)c(F)c3)C(=O)N2C1` [PP0853] the “NRAS/KRAS (ratio of KD value with respect to NRAS to KD value with respect to KRAS)” value [1] was “B (a compound having 3 or more and less than 10 is denoted as B)” and the “HRAS/KRAS (ratio of KD value with respect to HRAS to KD value with respect to KRAS)” value [2] was “B (a compound having 3 or more and less than 10 is denoted as B)”.
